Test results as given in US5830855A, “Lipodepsipeptides as antifungal and fungicidal agents” (priority 1996, dated 1998).
Converted amounts (≈) assume the structure as drawn. Numbered stars: 1 amine (or outer) side, 2 acyl side, 3 side chain; on linkers, the order of the positions; unused ones are H or OH. Bridge positions count the residues as written; N and C are the ends. Square brackets hold non-standard residues; d marks the D form. Peptide text beside a SMILES is read from it. * marks the point of attachment. ξ: configuration not given here. Asp(3S-OH) = N[C@H](C(=O)O)[C@H](O)C(=O)O; Thr(4-Cl) = N[C@H](C(=O)O)[C@H](O)CCl; ξAsp(3ξ-OH) = NC(C(=O)O)C(O)C(=O)O; X3 = O=C(C(N[*:1])C(O)CCl)[*:2]; X1 = CCCCCCCCC[C@@H](O)CC(=O)*; X2 = CCCCCCCCCCCC(O)CC(=O)*; dDab = NCC[C@@H](N)C(=O)O; Dab = NCC[CH](N)C(=O)O; Orn = NCCC[CH](N)C(=O)O; hSer = N[CH](CCO)C(=O)O; Dhb = C/C=C(\N)C(=O)O

Key:
Assay type in all cases: cell-based
[1] = test system: Aspergillus fumigatus; assay: Broth microdilution MIC; details: Table 1 (MICs), 16 isolates, 48 hr
Procedure: (§1) Medium: Liquid RPMI 1640 (RPMI) medium with L-glutamine and without sodium bicarbonate (Sigma Chemical Co., R-6504; St. Louis, Mo.) buffered with 0.165M MOPS (34.54 g/liter) was used for in vitro antifungal tests. The medium was adjusted to pH 7.0 with 10M NaOH and filter sterilized.
(§2) Lipodepsipeptide Dilutions: All stock drug solution concentrations were at least 10-fold higher than the highest concentration tested. AmB, ketoconazole, and the test compounds (SR-E, ST-B, and SS-A) were dissolved in sterile distilled water, 0.2N HCl, and 0.001N HCl, respectively. Each stock solution was diluted to 2× the highest concentration of drug tested with RPMI. Two-fold dilutions were made with RPMI medium.
(§3) Preparation of Inoculum Suspensions: On Sabouraud dextose agar (SDA; BBL, Becton and Dickinson and Co., Cockeysville, Md.) all isolates were subcultured at least twice before use to ensure purity and viability. Candida spp. and Saccharomyces cerevisiae were grown for 24 hr at 35° C. Isolates of Cryptococcus neoformans were grown for 48 hr at 35° C. Yeast cells from at least five 1-mm-diameter colonies were suspended in 5 ml of sterile 0.85% saline. The resulting suspension was vortexed for 15 sec. The turbidity of each mixed suspension was measured at 530 nm and adjusted to 1×10^6 to 5×10^6 CFU/ml by the NCCLS spectrophotometric method described by National Committee for Clinical Laboratory Standards. 1992. Reference method for broth dilution antifungal susceptibility testing of yeasts; proposed standard, NCCLS document M27-P (ISBN 1-56238-186-5). NCCLS, Villanova. The final transmission of each yeast suspension ranged from 85-87%.
(§4) Aspergillus fumigatus and Mucor spp. were grown for 1 wk at 35° C. The dermatophytes, Microsporum spp. and Trichophyton spp., were grown for two wk at 30° C. Fungal spores were washed from the plates of all good spore formers (A. fumigatus, Mucor spp., Microsporum canis and Trichophyton spp.) by placing 5 ml of 0.85% saline with 0.2% Tween 80 on the plates and mixing with an inoculating loop. The spore/mycelium suspension was drawn off with a pipette and allowed to settle for at least 5 min. For the poor spore-forming Microsporum audouinii, the procedure was the same except the spore/mycelial suspension was homogenized with a ground glass tissue homogenizer and then allowed to settle for at least 5 min. A small amount of the supernatant was transferred to 5 ml of sterile saline and vortexed. The stock suspensions of all filamentous fungi were measured at 530 nm and adjusted to 85-87% transmission. The concentration (1×10^6 to 5×10^6 CFU/ml) was determined by hemacytometer count or plate count on SDA. All stock suspensions were diluted 1000-fold with RPMI, or 2× the final desired test inocula. The 2× inoculum was diluted 1:1 when the wells were inoculated, and the desired inoculum size was achieved.
(§5) Broth Microdilution Test: Broth microdilution tests were performed using sterile, disposable, multiwell microdilution plates (96 round U-bottom wells) (Falcon 3077; Becton and Dickinson Labware, Lincoln Park, N.J.). The drugs (2× concentrations) were dispensed into the wells of rows number 1 to 10 of the microdilution plates in 100 μl volumes from highest drug concentration to lowest drug concentration. Each well was inoculated with 100 μl of the corresponding 2× concentrated fungal suspension. The wells of row 11 contained the inoculum with drug-free media as a positive growth control and the wells of row 12 contained uninoculated-drug-free medium as a sterility control.
(§6) Incubation and Scoring of MIC: All cultures were incubated without shaking at the temperature used during subculture. Incubation times were 48 hr for Candida spp., S. cerevisiae, A. fumigatus, and Mucor spp; 72 hr for C. neoformans; and 7 days for Microsporum and Trichophyton spp. […]

[2] = test system: Candida albicans; assay: Broth microdilution MIC; details: Table 1 (MICs); Candida albicans, 20 isolates; RPMI pH 7.0, 48 hr; Ktz read at score 2, others at score 0
Procedure: as §1, §2, §3, §4, §5, §6

[3] = test system: Candida kefyr; assay: Broth microdilution MIC; details: Table 1 (MICs), 1 isolate, 48 hr
Procedure: as §1, §2, §3, §4, §5, §6

[4] = test system: Candida krusei; assay: Broth microdilution MIC; details: Table 1 (MICs), 2 isolates, 48 hr
Procedure: as §1, §2, §3, §4, §5, §6

[5] = test system: Candida lusitaniae; assay: Broth microdilution MIC; details: Table 1 (MICs), 2 isolates, 48 hr
Procedure: as §1, §2, §3, §4, §5, §6

[6] = test system: Candida parapsilosis; assay: Broth microdilution MIC; details: Table 1 (MICs), 2 isolates, 48 hr
Procedure: as §1, §2, §3, §4, §5, §6

[7] = test system: Candida rugosa; assay: Broth microdilution MIC; details: Table 1 (MICs); Candida rugosa, 2 isolates; 48 hr
Procedure: as §1, §2, §3, §4, §5, §6

[8] = test system: Candida tropicalis; assay: Broth microdilution MIC; details: Table 1 (MICs); Candida tropicalis, 2 isolates; 48 hr
Procedure: as §1, §2, §3, §4, §5, §6

[9] = test system: Cryptococcus neoformans; assay: Broth microdilution MIC; details: for MIC range: Table 1 (MICs), Cryptococcus neoformans, 14 isolates, 72 hr
Procedure: as §1, §2, §3, §4, §5, §6

[10] = test system: Microsporum spp.; assay: Broth microdilution MIC; details: Table 1 (MICs), 2 isolates, 7 days
Procedure: as §1, §2, §3, §4, §5, §6

[11] = test system: Saccharomyces cerevisiae; assay: Broth microdilution MIC; details: Table 1 (MICs), 1 strain tested more than once (control ATCC 36375), 48 hr
Procedure: as §1, §2, §3, §4, §5, §6

[12] = test system: Trichophyton spp.; assay: Broth microdilution MIC; details: Table 1 (MICs), 3 isolates, 7 days
Procedure: as §1, §2, §3, §4, §5, §6

[13] = test system: Candida albicans; assay: Minimum Fungicidal Concentration (MFC); details: Table 2, 20 isolates, subculture on drug-free SDA 24 hr
Procedure: as §1, §2, §3, §4, §5, §6

[14] = test system: Candida kefyr; assay: Minimum Fungicidal Concentration (MFC); details: Table 2, 1 isolate, 24 hr
Procedure: as §1, §2, §3, §4, §5, §6

[15] = test system: Candida krusei; assay: Minimum Fungicidal Concentration (MFC); details: Table 2, 2 isolates, 24 hr
Procedure: as §1, §2, §3, §4, §5, §6

[16] = test system: Candida lusitaniae; assay: Minimum Fungicidal Concentration (MFC); details: Table 2, 2 isolates, 24 hr
Procedure: as §1, §2, §3, §4, §5, §6

[17] = test system: Candida parapsilosis; assay: Minimum Fungicidal Concentration (MFC); details: Table 2, 2 isolates, 24 hr
Procedure: as §1, §2, §3, §4, §5, §6

[18] = test system: Candida rugosa; assay: Minimum Fungicidal Concentration (MFC); details: Table 2, 2 isolates, 24 hr
Procedure: as §1, §2, §3, §4, §5, §6

[19] = test system: Candida tropicalis; assay: Minimum Fungicidal Concentration (MFC); details: Table 2, 2 isolates, 24 hr
Procedure: as §1, §2, §3, §4, §5, §6

[20] = test system: Cryptococcus neoformans; assay: Minimum Fungicidal Concentration (MFC); details: Table 2, 14 isolates, 48 hr
Procedure: as §1, §2, §3, §4, §5, §6

[21] = test system: Microsporum spp.; assay: Minimum Fungicidal Concentration (MFC); details: Table 2, 2 isolates, 7 d
Procedure: as §1, §2, §3, §4, §5, §6

[22] = test system: Saccharomyces cerevisiae; assay: Minimum Fungicidal Concentration (MFC); details: Table 2, 1 strain tested more than once, 24 hr
Procedure: as §1, §2, §3, §4, §5, §6

[23] = test system: Trichophyton spp.; assay: Minimum Fungicidal Concentration (MFC); details: Table 2, 3 isolates, 7 d
Procedure: as §1, §2, §3, §4, §5, §6

SMILES	MIC range [1] [µg/mL]	MIC range [2] [µg/mL]	MIC (μg/ml) range [3] [µg/mL]	MIC (μg/ml) range [4] [µg/mL]	MIC range [5] [µg/mL]	MIC range [6] [µg/mL]	MIC range [7] [µg/mL]	MIC (μg/ml) range [8] [µg/mL]	MIC range [9] [µg/mL]	MIC range [10] [µg/mL]	MFC (μg/ml) range [11] [µg/mL]	MIC range [12] [µg/mL]	MFC (μg/ml) range [13] [µg/mL]	MFC (μg/ml) range [14] [µg/mL]	MFC (μg/ml) range [15] [µg/mL]	MFC (μg/ml) range [16] [µg/mL]	MFC (μg/ml) range [17] [µg/mL]	MFC (μg/ml) range [18] [µg/mL]	MFC (μg/ml) range [19] [µg/mL]	MFC (μg/ml) range [20] [µg/mL]	other results
C/C=C1\NC(=O)C(C(C)O)NC(=O)C(CCCN)NC(=O)C(CCO)NC(=O)CNC(=O)C(CCN)NC(=O)C(NC(=O)CC(O)CCCCCCCCCCC)COC(=O)C(C(O)CCl)NC(=O)C(C(O)C(=O)O)NC1=O (centres unmarked) [ST-B, Syringotoxin B] (X2-S[Dab]G[hSer][Orn]T[Dhb][ξAsp(3ξ-OH)][X3]; ester 1-C; configuration not given here)	6.25 to 25	3.2 to 12.5	3.2 (≈ 2.82 µM)	12.5 to 25	6.25 (≈ 5.5 µM)	6.25 to 12.5	3.2 to 25	3.2 (≈ 2.82 µM)	0.8 to 6.25	25 to 200	6.25 (≈ 5.5 µM)	25 to 200	3.2 to 12.5	3.2 (≈ 2.82 µM)	12.5 to 50	6.25 to 12.5	12.5 to 25	6.25 to 50	12.5 (≈ 11 µM)	0.8 to 12.5	MIC, one strain of C. neoformans ([9]; one strain of C. neoformans, very sensitive to ST-B, somewhat resistant to AmB): 0.8 µg/mL; MFC (μg/ml) range [21]: 25 to 200 µg/mL; MFC (μg/ml) range [22]: 12.5 to 25 µg/mL; MFC (μg/ml) range [23]: 25 to 200 µg/mL
C/C=C1\NC(=O)[C@H](Cc2ccccc2)NC(=O)[C@H](CCCN=C(N)N)NC(=O)[C@@H](CCN)NC(=O)[C@H](CCN)NC(=O)[C@@H](CO)NC(=O)[C@@H](NC(=O)C[C@H](O)CCCCCCCCC)COC(=O)[C@H]([C@H](O)CCl)NC(=O)[C@H]([C@H](O)C(=O)O)NC1=O [SR-E, Syringomycin-E] (X1-S[dS][Dab][dDab]RF[Dhb][Asp(3S-OH)][Thr(4-Cl)]; ester 1-C)	10 to 20	2.5 to 5	2.5 (≈ 2.04 µM)	10 (≈ 8.16 µM)	2.5 (≈ 2.04 µM)	2.5 (≈ 2.04 µM)	5 to 20	2.5 to 5	2.5 to 10	6.25 to 12.5	2.5 (≈ 2.04 µM)	3.1 to 6.25	2.5 to 5	2.5 (≈ 2.04 µM)	10 (≈ 8.16 µM)	2.5 to 5	2.5 (≈ 2.04 µM)	10 to 20	5 (≈ 4.08 µM)	2.5 to 10	MFC (μg/ml) range [21]: 6.25 to 12.5 µg/mL; MFC (μg/ml) range [22]: 2.5 µg/mL (≈ 2.04 µM); MFC (μg/ml) range [23]: 6.25 to 25 µg/mL
